Data published in patent US11479531B2, “Deoxyuridine triphosphatase inhibitors” (University of Southern California, priority 2015, dated 2022).

What was measured:
[1] = test system: colorectal (HCT116), breast (MCF-7) and non-small cell lung (H1299, A549, H358 and H460) cell line models; assay: Colony forming assay; type: cell-based; conditions: increasing concentrations of FUdR between 0.5 and 2.5 μmol/L; all cell lines evaluated
Procedure: Colony forming assay showing the ability of colon (SW620, HCT116), non-small cell lung (A549, H460, H1299 and H358) and breast (MCF7) cancer cells to survive and proliferate following transient 24 hour exposure to test compounds, FUdR and combinations are determined. Specifically, cells are seeded at densities between 50 and 100 cells/well in 24-well plates. […] After 24 hours, drug is removed, cells are rinsed and allowed to outgrow for 10-14 days. At the conclusion of the outgrowth, cells are fixed in 60% ice cold methanol and stained with 0.1% crystal violet, scanned and counted. Data is presented as percentage of untreated controls (mean±SD). Fraction affected and combination indexes are calculated according to the method of Chou and Talalay where <1 is indicative of a synergistic drug interaction.
Colony forming assays are performed to evaluate the effectiveness of test compounds alone and in combination with the fluoropyrimidine thymidylate synthase (TS) inhibitor fluorodeoxyuridine (FUdR) at reducing cancer cell viability in colorectal (HCT116), breast (MCF-7) and non-small cell lung (H1299, A549, H358 and H460) cell line models.

[2] = test system: colorectal (HCT116 and SW620) cell line models; assay: MTS growth inhibition assay; type: cell-based; conditions: increasing concentrations of 5-FU between 0 and 100 μmol/L; both colorectal cancer cell lines (HCT116, SW620)
Procedure: The Cell Titer AQueous MTS assay (Promega) is carried out according to the manufacturers guidelines. […] The combination effect is determined by the combination index (CI) method utilizing Calcusyn software (Biosoft, Ferguson, Mo.). […] CI values <1, synergism; 1-1.2, additive and >1.2, antagonism.
Test compounds are evaluated for their antitumor activity in colorectal cancer cells using the MTS growth inhibition assay. HCT116 and SW620 cells are exposed to increasing concentrations of each agent for 72 hours and growth inhibition is directly compared to vehicle-treated controls. The NSCLC cell lines A549 and H1299 are exposed to increasing concentrations of each agent for 72 hours and growth inhibition is directly compared to vehicle-treated controls.
Simultaneous treatment with increasing concentrations of 5-FU and a test compound at fixed concentrations of 25 μmol/L is determined.

Structure (SMILES)	colonies formed [1]	growth inhibition [2]
O=c1[nH]c(=O)n([C@H]2C[C@H](O)[C@@H](CO)O2)cc1F [FUdR, fluorodeoxyuridine]	dose-dependent decreases in colonies formed	
O=c1[nH]cc(F)c(=O)[nH]1 [5-FU, 5-fluorouracil]		dose-dependent increases in growth inhibition
